Laboratory results as given in patent US20240285528A1, “NANO-MOLECULE AGGREGATE CONSISTING OF ORGANIC MATERIAL, INORGANIC MATERIAL OR SALT THEREOF AND PREPARATION METHOD THEREFOR” (SCAI THERAPEUTICS CO., LTD., priority 2021, published 2024).

experiment: Aqueous solubility (dispersity) by HPLC after stirring and filtration; assay type: physicochemical; settings: water, stirred at 25° C. for 10 hours, 0.2 micron filter

| Aqueous solubility (dispersity) | Structure (SMILES) |
| --- | --- |
| 0.0033 % (wt/v) | O=C(Nc1ccc([N+](=O)[O-])cc1Cl)c1cc(Cl)ccc1O [Niclosamide, niclosamide] |
| 7.6 % (wt/v) | C=CC[C@@H]1/C=C(\C)C[C@H](C)C[C@H](OC)[C@H]2O[C@@](O)(C(=O)C(=O)N3CCCC[C@H]3C(=O)O[C@H](/C(C)=C/[C@@H]3CC[C@@H](O)[C@H](OC)C3)[C@H](C)[C@@H](O)CC1=O)[C@H](C)C[C@@H]2OC [Tacrolimus, tacrolimus] |
| 0.27 % (wt/v) | Nc1ncnc2c1ncn2[C@@H]1O[C@H](CO)[C@@H](O)[C@H]1O [Adenosine, adenosine] |
| 0.321 % (wt/v) | C=C1CCN([C@H](C)[C@](O)(Cn2cncn2)c2ccc(F)cc2F)CC1 [Epinaconazole, epinaconazole] |
| 0.004 % (wt/v) | CC(=O)Oc1cc2c(cc1Cl)C(c1ccccc1C(=O)O)c1cc(Cl)c(OC(C)=O)cc1O2 [DCF-DA, 2′, 7′-dichlorofluorescin diacetate] |
